Source: ChEMBL document CHEMBL1141521, “Individual stereoisomers of phosphinic dipeptide inhibitor of leucine aminopeptidase” (Bioorg Med Chem Lett, 2008)

Target: T1, Leucine aminopeptidase (Plasmodium falciparum 3D7, UniProt Q8IL11)
T1 sequence (Q8IL11 whole entry): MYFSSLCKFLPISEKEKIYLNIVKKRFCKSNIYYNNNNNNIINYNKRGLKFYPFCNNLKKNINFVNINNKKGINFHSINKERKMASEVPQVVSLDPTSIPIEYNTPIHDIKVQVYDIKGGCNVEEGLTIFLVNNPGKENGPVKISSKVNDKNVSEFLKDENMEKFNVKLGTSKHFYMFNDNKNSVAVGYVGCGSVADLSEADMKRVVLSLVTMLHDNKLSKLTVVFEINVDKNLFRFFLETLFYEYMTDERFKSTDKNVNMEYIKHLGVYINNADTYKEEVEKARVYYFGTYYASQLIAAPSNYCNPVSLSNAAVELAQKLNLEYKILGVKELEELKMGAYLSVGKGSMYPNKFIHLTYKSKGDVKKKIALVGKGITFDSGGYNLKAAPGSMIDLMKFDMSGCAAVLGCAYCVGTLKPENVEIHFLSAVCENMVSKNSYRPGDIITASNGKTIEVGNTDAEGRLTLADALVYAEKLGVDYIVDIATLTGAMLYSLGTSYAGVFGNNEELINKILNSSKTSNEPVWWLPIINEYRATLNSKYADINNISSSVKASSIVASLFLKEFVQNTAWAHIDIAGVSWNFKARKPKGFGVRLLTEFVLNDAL
Assay: Inhibition of Plasmodium falciparum recombinant leucine aminopeptidase

- Ki: 0.0132 µM
Structure (SMILES): NC(CCc1ccccc1)P(=O)(O)CC(Cc1ccccc1)C(=O)O (stereo unspecified)
